Experimental data published in US7977361B2, “Nitro-imidazole hypoxia imaging agent” (Siemens Medical Solutions USA, Inc., priority 2007, dated 2011).
Entries after “also recorded” stand apart in the source; their conditions may differ.

Experiments:
[1] = tested on: ALM12 mouse normal liver cell lines; assay: Cytotoxicity assay (MTT reduction), ALM12 cells; format: cell-based; conditions: ALM12, 0-10000 nM, 24 hours
Procedure: (§1) Method: The assay is based on the ability of viable cells to reduce 3-[4,5-dimethylthiazol-2-yl]-2,5-diphenyl tetrazolium bromide to colored formazan crystals. Ls174T human colorectal adenocarcinoma, A172 human brain glioblastoma, MRC5 human normal lung fibroblast, and ALM12 mouse normal liver cell lines were selected for this study. Cells were cultured with different concentration of Compound 1 (0, 100, 500, 1000, 5000, 10000 nM) for 24 hours and then incubated with 0.5 mg/ml of 3-[4,5-dimethylthiazol-2-yl]-2,5-diphenyl tetrazolium bromide for 1 hour. Cells were lysed and formazan crystals were dissolved with 2-propanol for 1 hour and the optical density of the resultant colored 2-propanol was measured. The percentages of cell survival were calculated based on the optical densities.

[2] = tested on: Ls174T human colorectal adenocarcinoma; assay: Cytotoxicity assay (MTT reduction), Ls174T cells; format: cell-based; conditions: 0-10000 nM, 24 hours
Procedure: as §1

[3] = Plasma and urine pharmacology study of Compound 1 in rats (LC/MS after IV injection); format: in vivo; conditions: rat
Procedure: (§2) To the samples were added a proportional amount of lysis buffer (about 5 ml/gram tissue) before the tissue was homogenized using a powered homogenizer, 50 μL of lysis buffer was added to the blood and urine samples, followed by briefly vortexing. 200 μl of organ homogenate was sampled into a 1.5 ml Eppendorf tube. All samples were heated at 100° C. for 2 minutes to denature the proteins and then placed in ice for 15 minutes. Then 40 μl of formic acid was added to the organ samples and 20 μl was added to the blood and urine samples. All tubes were vortexed to achieve complete mixing of sample with acid. Samples were then placed on ice for 15 minutes before being centrifuged at 13000 rpm for 15 minutes at 4° C. 30 μl of the supernatant was transferred to an HPLC vial for MSD analysis.
(§3) A standard curve with a wide range of Compound 1 concentrations was prepared using the same method described above for tissue lysate treatment. The corresponding peak of the compound was identified first in the standards. The areas of the peaks were measured and converted into a standard correlation curve for estimation of Compound 1 concentration in the samples. The amount of compound in each sample is expressed as % injected dose/gram tissue (% ID/g tissue).
Method: Compound 1 solution was prepared as described previously. One ml of 10 mM Compound 1 solution was injected intravenously (tail vein) into rats under isofluorane anesthesia. Blood and urine samples were collected before injection and at 15, 30, 60, 90 and 120 minutes after injection. Samples treatments and LC/MS measurement are the same as the mouse samples described in 1A.

[4] = tested on: MRC5 human normal lung fibroblast; assay: Cytotoxicity assay (MTT reduction), MRC5 cells; format: cell-based; conditions: MRC5, 0-10000 nM, 24 hours
Procedure: as §1

[5] = tested on: A172 human brain glioblastoma; assay: Cytotoxicity assay (MTT reduction), A172 cells; format: cell-based; conditions: A172, 0-10000 nM, 24 hours
Procedure: as §1

[6] = Bio-distribution and bio-stability of Compound 1 in mice (LC/MS of blood, urine and organs after IV injection); format: in vivo; conditions: mouse; for tissue uptake at 30 min: 1 µmol per animal
Procedure: Method: Compound 1 was dissolved in DMSO to achieve a 100 mM stock solution. This was then diluted with 1× PBS containing 3% Solutol to achieve a concentration of 5 mM. 200 μl of 5 mM Compound 1 solution was injected into the tail vein in mice animals under isofluorane anesthesia. The in vivo uptake was two hours.
Blood and urine samples were collected at 30, 60, 90 and 120 minutes. Samples were immediately placed on ice to prevent compound degradation. After blood and urine sampling were completed at 120 minutes, the mouse was sacrificed by cervical dislocation. The following whole organs were harvested within 30-40 minutes in the following order; lower GI, upper GI, spleen, pancreas, gall bladder, liver, heart, kidneys, lungs, about 0.3 gram of muscle from both legs, about 0.4 gram of skin at the back, the entire brain and about 0.4 gram of fat inside the abdomen.
as §2, §3

O=[N+]([O-])c1nccn1Cc1cn(C(CO)CF)nn1 (stereo not drawn) [Compound 1, 3-Fluoro-2-(4-((2-nitro-1H-imidazol-1-yl)methyl)-1H-1,2,3-triazol-1-yl)propan-1-ol]
cytotoxicity: numbers of viable cells vs untreated control cells [1]: no difference
cytotoxicity: numbers of viable cells vs untreated control cells [2]: no cytotoxic effects; also recorded: no difference
tissue uptake at 30 min ([3]; 10 µmol per animal, IV tail vein 1 ml of 10 mM, urine at 30 minute, read-out: urine level): 5.3 %ID/g
urine excretion and blood clearance [3]: fast
urine excretion index (averaged urine % ID/g divided by blood % ID/g at 120 minute) [3]: 36.62
tissue uptake at 30 min ([3]; whole blood, 10 µmol per animal, IV tail vein 1 ml of 10 mM, blood at 30 minutes, read-out: blood level): 0.67 %ID/g
tissue uptake at 120 min ([3]; whole blood, 10 µmol per animal, IV tail vein 1 ml of 10 mM, blood at 120 minutes, read-out: blood level): 0.15 %ID/g
cytotoxicity: numbers of viable cells vs untreated control cells [4]: no cytotoxic effects; also recorded: no difference
cytotoxicity: numbers of viable cells vs untreated control cells [5]: no cytotoxic effects; also recorded: no difference
tissue uptake at 30 min ([6]; IV tail vein 200 μl of 5 mM, urine at 30 minutes, read-out: urine level): 95.6 %ID/g
blood clearance and urine excretion [6]: fast
urine excretion index (averaged urine % ID/g divided by blood % ID/g at 120 minute) [6]: 88.69
blood level ([6]; IV tail vein 200 μl of 5 mM, blood at 120 minutes): 0.59%
levels in gall bladder and GI system ([6]; organs harvested after 120 minutes): low
tissue uptake at 30 min ([6]; whole blood, IV tail vein 200 μl of 5 mM, blood at 30 minutes, read-out: blood level): 4.1 %ID/g
